Data published in PMC11594981 (International Journal of Molecular Sciences, 2024).

Target: T1, CYP3A4 (Homo sapiens, UniProt P08684)
T1 construct: recombinant CYP3A4 (BACULOSOMES Plus reagent)
Test: fluorogenic substrate turnover by recombinant CYP3A4 (Vivid kit)
Assay type: biochemical

T1 sequence (P08684 2-503): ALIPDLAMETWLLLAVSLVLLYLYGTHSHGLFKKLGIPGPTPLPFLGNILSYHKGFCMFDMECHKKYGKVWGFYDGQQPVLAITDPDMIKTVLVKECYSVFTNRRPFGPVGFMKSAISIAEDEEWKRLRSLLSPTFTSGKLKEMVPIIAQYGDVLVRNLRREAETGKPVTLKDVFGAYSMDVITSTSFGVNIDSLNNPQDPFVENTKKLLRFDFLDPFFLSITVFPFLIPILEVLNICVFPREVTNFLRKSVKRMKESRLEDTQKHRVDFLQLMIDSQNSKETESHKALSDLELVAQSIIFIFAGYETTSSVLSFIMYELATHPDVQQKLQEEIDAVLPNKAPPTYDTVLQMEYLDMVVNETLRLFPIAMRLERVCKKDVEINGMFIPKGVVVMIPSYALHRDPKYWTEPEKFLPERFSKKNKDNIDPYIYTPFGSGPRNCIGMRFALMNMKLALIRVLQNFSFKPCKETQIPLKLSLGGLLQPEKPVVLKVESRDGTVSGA

N#Cc1cc2ccc(OCOCc3ccccc3)cc2oc1=O [BOMCC, 7-benzyloxymethoxy-3-cyano-coumarin]
fluorogenic substrate turnover by recombinant CYP3A4 (Vivid kit): Inhibition of BOMC transformation by CYP3A4 in the presence of ivermectin
